Entries after “also recorded” stand apart in the source; their conditions may differ.
How the values were obtained:
[1] = test system: NGF mRNA; assay: real-time RT-PCR for NGF mRNA in osteocyte-like cultures; assay type: cell-based, human
Experimental: (§1) FIG. 23. Effects of combinations of rhTNF and PPS on NGF gene expression in osteocyte-like cultures. Human differentiated osteocyte-like cultures were either untreated or pretreated with PPS (0.1 or 1.0 μg/mL) for 24 h, then with or without rhTNFα (1 ng/mL) for a further 48 h, and then real-time RT-PCR was performed for NGF mRNA. Data are mean+SD of triplicate real-time RT-PCR reactions normalised to the mRNA expression of the housekeeping gene ACTB.
as §1, with “28.” for “23.”
Cryopreserved cells from each donor (all at passage 0 or 1) were thawed and cultured for 10d in T75 cm^2 tissue culture flasks. Once confluent, cells were removed by collagenase/dispase digestion, washed by centrifugation, counted and adjusted to 5×10^5 cells/mL. Cells were then seeded into either 12-well tissue culture trays or into 8-well chamber slides, at 1×10^5 and 2×10^4 cells/well, respectively. After 24 h, media were replaced with osteogenic differentiation medium, consisting of αMEM, 5% v/v foetal calf serum (FCS), 1.8 mM potassium dihydrogen phosphate (KH2PO4), 100 μM Ascorbate-2-phosphate (As2P), 10 mM HEPES, 10^−8 M Dexamethasone and 0.2 mM L-Glutamine. During the differentiation process, samples were collected at days 3, 14 and 28 in Trizol reagent for total RNA preparation and gene expression analysis (see below). Cultures seeded into chamber slides were examined for in vitro mineralisation using the Alizarin Red staining technique, as previously described.
PPS was manufactured by bene pharmaChem GmbH & Co. KG, Geretstried, Germany. This was dissolved in sterile PBS as a stock solution at 1.0 mg/mL. Differentiated cells were either untreated or pre-treated with final concentrations of PPS at 1, 5 or 50 μg/mL in culture medium for 72 h. The tested doses of PPS were based on the effective and maximally active levels published in a previous study. Media were then replaced with the same concentrations of PPS with or without the addition of recombinant human (rh) TNFα (1 ng/mL) and then cultured for a further 48 h. Culture supernatants were collected and total RNA and cDNA prepared, as described below. This generated 8 conditions (Untreated, TNF, PPS1, PPS5, PPS50, TNF+PPS1, TNF+PPS5, TNF+PPS50) from 6 donors.
Total RNA was prepared from Trizol lysates, according to the manufacturer's instructions, with the exception that due to evidence for PPS interference in the generation of assayable cDNA, RNA precipitates were washed 3 times in 75% ethanol instead of the usual single wash step, in an attempt to remove residual PPS. RNA preparations were tested for yield and purity using a Nanodrop microvolume spectrophotometer (Thermo Fisher). One microgram of RNA from each sample was reverse transcribed using a Superscript™ II kit (Thermo Fisher), as per manufacturer's instructions. Real-time RT-PCR was performed for genes including Nerve Growth Factor (NGF), its receptors NTRK1 (TRKA) and NGFR (P75NTR), MMP13, Cyclooxygenase-2 (COX-2), Interleukin-6 (IL-6) RANKL, OPG, OCN, DMP1 and SOST, relative to housekeeping gene (18S, ACTB) expression. […]

[2] = test system: NGF; assay: NGF immunostaining / confocal microscopy of osteocytes freshly isolated from human KOA bone; assay type: cell-based; settings: osteocyte-enriched fractions of KOA bone digests, 24 h, qualitative (FIG. 22)
Experimental: FIG. 22. NGF expression in isolated human osteocytes. Osteocyte-enriched fractions of sequential human trabecular bone digests were cultured for 24 h either untreated (A), treated with rhTNFα (B), PPS (0.5 μg/mL) (C) or a combination of both (D), and then examined by confocal microscopy for NGF immunoreactivity. Control cells were also immunostained using an isotype-matched negative control primary antibody (E). Images are representative of data obtained from two individual donors. Scale bars in each image represent 100 μm.
Cell seeded in 8-well chamber slides and differentiated for 28 days or freshly digested from bone were either untreated or treated with rhTNFα (1 ng/mL), PPS (50 μg/mL; ‘PPS50’) or PPS50+rhTNFα. Following differentiation, medium was removed and all wells rinsed with PBS (pH 7.4, Gibco) a total of three times. Cells were then fixed with 100 μL of Histochoice (Sigma-Aldrich) tissue fixative for 1 hour at room temperature. After fixation, wells were rinsed twice with distilled H2O and stored at 4° C. until staining. Cells were blocked with 50 μL of blocking buffer (5% v/v normal rabbit serum in 1×PBS) for 20 minutes at room temperature in a humid chamber. Cells were then rinsed with wash buffer (0.1% v/v normal rabbit serum in PBS) three times. […]

Sodium Pentosan Polysulfate [PPS]
NGF mRNA levels, PPS in combination with rhTNFα ([1]; KOA1 and KOA2 cultures, PPS 1 μg/mL + rhTNFα 1 ng/mL, 48 h, relative to 18S rRNA (FIG. 16)): strongly suppressed | NGF mRNA levels, PPS alone ([1]; KOA1 and KOA2 cultures, PPS 1 μg/mL, 72 h pre-treatment + 48 h, relative to 18S rRNA (FIG. 16)): strongly suppressed | NGF expression (mRNA) in the presence of TNFα ([1]; PPS at 1 μg/mL, 24 h pre-treatment, rhTNFα 1 ng/mL 48 h, normalised to ACTB (FIG. 23)): significantly reduced | NGF expression (mRNA) in the presence of TNFα ([1]; PPS at 1 mg/mL (so in the source), FIG. 28, normalised to ACTB): significantly reduced | basal NGF mRNA levels ([1]; PPS at both 0.1 and 1 μg/mL, 24 h pre-treatment + 48 h, normalised to ACTB (FIG. 23)): no apparent effect | NGF expression (immunostaining), combination of rhTNF-α and PPS ([2]; PPS 0.5 μg/mL + rhTNFα): downregulated; also recorded: qualitatively less staining | NGF expression (immunostaining), PPS alone vs control ([2]; PPS 0.5 μg/mL): qualitatively greater
